Patent US9694003B2, “Formulations and methods for treating high intraocular pressure” (Bridge Pharma, Inc., priority 2015, dated 2017)

How the values were obtained:
[1] = system: Staphylococcus aureus; assay: Preservation challenge test (USP 51), S. aureus; assay type: cell-based; conditions: saline formulation, pH 5.0
Method: (§1) METHOD: The standardized Preservative Challenge Test (U.S. Pharmacopeia 51 Antimicrobial Effectiveness Testing) have been used for tests of self-preservation by norketotifen in concentrations to be used for patients suffering from allergic conjunctivitis and xerophthalmia. USP (51) is a standard test used to determine the antimicrobial effectiveness of test articles and ophthalmic formulations. The present tests were using 150 ml of each formulation and covered the mandatory five organisms: Escherichia coli (fermentative G−), Pseudomonas aeruginosa (non-fermentative G−), Staphylococcus aureus (G+), Aspergillus brasiliensis (mold), and Candida albicans (yeast). The number of inoculated cells was 0.5×10^5 per mL and the incubation temperature was 25° C. for all inoculations. Plating for measuring of recoveries were performed weekly over 4 weeks. The norketotifen formulations were defined as being self-preserving only if the numbers of cell colonies remained constant (fungi) and were declining (bacteria) according to the strictly standardized USP 51 protocol. […] All solutions used in the antimicrobial studies were devoid of added preservatives.
(§2) USP Criteria for Tested Microorganisms (Category 1)
(§3) Bacteria: Not less than a 3.0 logarithmic reduction from the initial count to the count at 14 days, and no increase from the counts at 14 days to the counts at 28 days.

[2] = system: Pseudomonas aeruginosa; assay: Preservation challenge test (USP 51), P. aeruginosa; assay type: cell-based; conditions: saline formulation, pH 5.0
Method: as §1, §2, §3

[3] = system: Aspergillus brasiliensis; assay: Preservation challenge test (USP 51), A. brasiliensis; assay type: cell-based; conditions: saline formulation, pH 5.0
Method: as §1, §2
(§4) Yeast and Molds (Fungi): No increase from the initial calculated count at 14 or 28 days.

[4] = system: Candida albicans; assay: Preservation challenge test (USP 51), C. albicans; assay type: cell-based; conditions: saline formulation, pH 5.0
Method: as §1, §2, §4

[5] = system: Escherichia coli; assay: Preservation challenge test (USP 51), E. coli; assay type: cell-based; conditions: saline formulation, pH 5.0
Method: as §1, §2, §3

[6] = system: Escherichia coli, Pseudomonas aeruginosa, Staphylococcus aureus, Aspergillus brasiliensis, Candida albicans; assay: Preservative Challenge Test (USP 51 Antimicrobial Effectiveness Testing), all five organisms; assay type: cell-based; conditions: ocular formulation without preservatives, concentrations useful for decreasing IOP
Method: METHOD: The standardized Preservative Challenge Test (U.S. Pharmacopeia 51 Antimicrobial Effectiveness Testing) have been used for tests of self-preservation by norketotifen in concentrations to be used for patients suffering from allergic conjunctivitis and xerophthalmia. USP (51) is a standard test used to determine the antimicrobial effectiveness of test articles and ophthalmic formulations. The present tests were using 150 ml of each formulation and covered the mandatory five organisms: Escherichia coli (fermentative G−), Pseudomonas aeruginosa (non-fermentative G−), Staphylococcus aureus (G+), Aspergillus brasiliensis (mold), and Candida albicans (yeast). The number of inoculated cells was 0.5×10^5 per mL and the incubation temperature was 25° C. for all inoculations. Plating for measuring of recoveries were performed weekly over 4 weeks. The norketotifen formulations were defined as being self-preserving only if the numbers of cell colonies remained constant (fungi) and were declining (bacteria) according to the strictly standardized USP 51 protocol. Tests were performed at pH 4.0, pH 4.5, pH 5.0 and pH 6.0 and the test articles were dissolved in BSA/water (BSA=bovine serum albumin) containing at least 0.01 percent norketotifen (calculated as free base). […]
as §4

[7] = Solubility of norketotifen HF in non-aqueous carriers; assay type: physicochemical
Source text: The intraocular formulations contain a carrier, such as water which is the carrier for an aqueous solution. Non-aqueous carriers include polyethylene glycol (PEG) and/or propylene glycol (PG) can be used in ophthalmic compositions. […] Norketotifen can be dissolved in water in concentrations up to about 0.2 wt %. Exemplary non-aqueous solvents include polyethylene glycol (about 0.1% to about 90%) and propylene glycol (about 0.1% to about 90%).

[8] = system: intraocular pressure in the eyes of rabbits; assay: Intraocular pressure during repeated daily norketotifen eye-drops; assay type: in vivo; conditions: 6 rabbits
Method: (§5) Fifty-two rabbits (26F+26M) were assigned to four groups and were administered repeated daily doses of norketotifen HF solutions by the ocular route, 0.00, 0.0345, 0.0690 and 0.138 wt % for 6 weeks. […] In addition to regular toxicology parameters, ophthalmic parameters and ocular irritation scores were assessed. Blood samples were collected at predetermined time intervals. Plasma sample were analyzed using a validated LCMS-MS method. Plasma pharmacokinetics was calculated.
In the previously described Ocular Irritation/Toxicity Study (Example 7), intraocular pressure was measured in the eyes of one group of rabbits (3M+3F), before, during and after repeated daily ocular treatment with norketotifen eye-drops. […] The group tested for effects on IOP consisted of 12 eyes and the dose administered was 0.14 wt % and norketotifen was administered daily for 6 weeks, followed by a two-week recovery period without norketotifen administration. Day 42 was the last day of the treatment period and Day 56 was the last day of the recovery period.

[9] = system: rabbits; assay: Ocular irritation/toxicity study, repeated daily ocular doses; assay type: in vivo; conditions: repeated daily doses for 6 weeks, highest concentration tested
Method: as §5

[10] = system: eye; conditions: cited from earlier work
[11] = system: cornea; conditions: topical application to the eye, usual clinical concentration; cited from earlier work
[12] = system: macrophages; conditions: cited from earlier work
[13] = system: trabecular mesh; conditions: within 15 minutes of exposure; cited from earlier work

Compound | S. aureus CFU/ml ([1]; Day 0) | S. aureus CFU/ml ([1]; Day 14) | S. aureus Log Reduc ([1]; Day 14) | S. aureus CFU/ml ([1]; Day 28) | S. aureus Log Reduc ([1]; Day 28) | P. aerugin CFU/ml ([2]; Day 0) | P. aerugin CFU/ml ([2]; Day 14) | P. aerugin Log Reduc ([2]; Day 14) | P. aerugin CFU/ml ([2]; Day 28) | P. aerugin Log Reduc ([2]; Day 28) | A. brasil CFU/ml ([3]; Day 0) | A. brasil CFU/ml ([3]; Day 14) | A. brasil Log Reduc ([3]; Day 14) | A. brasil CFU/ml ([3]; Day 28) | A. brasil Log Reduc ([3]; Day 28) | C. albic CFU/ml ([4]; Day 0) | C. albic CFU/ml ([4]; Day 14) | C. albic CFU/ml ([4]; Day 28) | C. albic Log Reduc ([4]; Day 28) | E. coli CFU/ml ([5]; Day 0) | also measured
CN1CCC(=C2c3ccccc3CC(=O)c3sccc32)CC1.O=C(O)/C=C/C(=O)O [KETO, RS-ketotifen hydrogen fumarate, reference compound] | 2.0E+06 CFU/ml | 3.3E+06 CFU/ml | None | 3.6E+06 CFU/ml | None | 3.1E+05 CFU/ml | 1.5E+4 CFU/ml | 1.31 | 2.3E+05 CFU/ml | 0.13 | 3.6E+05 CFU/ml | 4.8E+05 CFU/ml | None | 2.0E+05 CFU/ml | 0.25 | 7.9E+05 CFU/ml | 3.0E+03 CFU/ml | 1.1E+03 CFU/ml | 0.25 | 1.5E+06 CFU/ml | E. coli CFU/ml ([5]; Day 14): 2.5E+04 CFU/ml; E. coli Log Reduc ([5]; Day 14): 1.78; E. coli CFU/ml ([5]; Day 28): 2.6E+06 CFU/ml; E. coli Log Reduc ([5]; Day 28): None; self-preservation test, conclusion [6]: not pass the self-preservation test
O=C(O)C=CC(=O)O.O=C1Cc2ccccc2C(=C2CCNCC2)c2ccsc21 [norketotifen HF, RS-norketotifen hydrogen fumarate] | 2.5E+05 CFU/ml | <5.0+00 CFU/ml | >4.70 | <5.0+00 CFU/ml | >4.70 | 4.7E+05 CFU/ml | <5.0+00 CFU/ml | >4.79 | <5.0+00 CFU/ml | >4.97 | 7.0E+05 CFU/ml | 5.75E+02 CFU/ml | 3.09 | 3.10E+02 CFU/ml | 3.35 | 6.0E+05 CFU/ml | <5.0+00 CFU/ml | <5.0+00 CFU/ml | >5.08 | 8.5E+05 CFU/ml | solubility in polyethylene glycol (PEG 300) ([7]; PEG 300): about 0.15 percent w/w; solubility in propylene glycol ([7]; propylene glycol): up to 1.0 wt %; C. albic Log Reduc ([4]; Day 14): >5.08; IOP (mm Hg; ± SD) ([8]; Day 1 (pretest), 12 eyes): 20.4 ± 2.9 mm Hg; IOP (mm Hg; ± SD) ([8]; Day 42 (treatment), 0.14 wt % eye-drops daily for 6 weeks, P = 0.0005 vs. Day 1): 16.5 ± 1.7 mm Hg; IOP (mm Hg; ± SD) ([8]; Day 56 (recovery, two weeks without dosing), P < 0.0001 vs. Day 42): 20.5 ± 1.6 mm Hg; E. coli CFU/ml ([5]; Day 14): <5.0+00 CFU/ml; E. coli Log Reduc ([5]; Day 14): >5.23; E. coli CFU/ml ([5]; Day 28): <5.0+00 CFU/ml; E. coli Log Reduc ([5]; Day 28): >5.23; No-Observable-Adverse-Effect-Level (NOAEL) [9]: 0.138%
benzalkonium chloride [BAK] | – | – | – | – | – | – | – | – | – | – | – | – | – | – | – | – | – | – | – | – | concentration inducing toxic ocular effects [10]: ≥ 0.0001%; concentration causing corneal neurotoxicity [11]: 0.01%; concentration that stimulates macrophages, increases phagocytosis and releases cytokines [12]: 0.0001%; concentration expressing toxicity that targets the trabecular mesh [13]: 0.0001%
